Results taken from US9750728B2, “Method and pharmaceutical composition for inhibiting PI3K/AKT/mTOR signaling pathway” (TARGETED THERAPEUTICS, LLC, priority 2012, dated 2017).
“Also recorded” adds a separate entry of the source.

Tests used:
Type in all cases: cell-based
[1] = test system: AKT phosphorylation (S473); assay: Immunoblot analysis of AKT phosphorylation in cancer cells; conditions: for AKT phosphorylation: two days; for AKT phosphorylation (S473): ZPP 400 μM or Y29794 1 μM; for rapamycin-induced increase in phosphorylation of AKT: rapamycin 10 nM plus ZPP 200 μM or Y29794 0.5 μM, 24 hours
Experimental: (§1) 2.2 Immunoblot analysis of gene silencing of PRCP or PREP in cancer cells. Mouse anti-PRCP antibody was purchased from Abcam (Cambridge, Mass., USA). Goat anti-PREP antibody was purchased from R&D Systems (Minneapolis, Minn., USA). Mouse anti-R-actin antibody antibodies was from Santa Cruz Biotechnology (Santa Cruz, Calif., USA). Panc-1 pancreatic cancer cells and MCF7 breast cancer cells were cultured to 80% confluence, cells were rinsed three times with pre-cooled PBS, 500 μl of lysis buffer (150 mmol/L Nacl, 1% Triton-x-100, 50 mmol/l TrispH8.0, 1 mmol/L PMSF, 1 ug/L aprotinin, 1 ug/L leupeptin, 1 ug/L peptain) was added to the cells. Cells were scraped and transferred to a centrifuge tube with a pipette. The lysates were spun in a microcentrifuge at maximal speed for 10 minutes at 4° C. to get rid of the insoluble fraction. Protein concentration was determined by Bradford assay. For immunoprecipitation: 2-5 ug protein-specific antibodies were added to 250-500 ug of lysates in a tube and incubated on an ordital shaker 4° C. for 2-4 hours with moderate shaking, then 20 ul Protein G beads (Santa Cruz Biotechnology (Santa Cruz, Calif., USA.) were added and the mixture was incubated with moderate shaking for another hour. After washing the beads in lysis buffer five times, the immunoprecipitates were boiled in 2× Laemmli sample buffer (50 mmoL/L Tris-HCL (pH8.0), 100 mmoL/L DTT, 2% SDS, 0.1% bromophenol blue, 10% glycerol) for five minutes. The proteins were separated by conventional SDS-polyacrylamide gel electrophoresis (SDS-PAGE) electrophoresis and transferred to Amersham Hybond-P PVDF membrane (GE Company, Pittsburgh, Pa., USA). For immunoblot, the membrane was blocked in 2% BSA in TBST buffer (Tris 1.21 g+NaCl 5.84 g+800 ml H2O adjusted to pH 8.0 with HCl) for one hour and then incubated with primary antibodies in TBST at room temperature (22-25° C.) for 2 hours. After washing three times with TBST, the membrane was incubated with HRP-conjugated secondary antibodies for 0.5 hours at room temperature. After washing the membrane five times with TBST (5 minutes/each), the membrane was incubated with ECL chromogenic reagent (GE Company, Pittsburgh, Pa., USA) for 1-5 minutes. The blots were exposed to films in darkroom for 1-5 minute. The films were developed in an automatic X-OMAT Developer (KODAK, Rochester, N.Y., USA). […] PREP gene silencing (PREP KD) or PRCP gene silencing (PRCP KD) or gene silencing both PRCP and PREP (DKD) in MCF7 cells reduces expression of PREP and/or PRCP proteins compared with control cells (control) (FIGS. 6B & 6C).
3.1 Reduction in AKT phosphorylation is examined by immunoblot using rabbit anti-phospho-AKT […] and rabbit anti-pan AKT antibodies purchased from Cell Signaling Technology (Danvers, Mass., USA) in the cells with gene silencing of PRCP and/or PREP or treated with ZPP or Y29794. Reduction in PRCP and/or PREP is shown by Western blot and quantitative PCR described in 2.2.

Panc-1 = assay: Colony formation assay (clonogenic assay)
Experimental: 1.2. Colony formation assay (clonogenic assay) was used to analyze the effect of ZPP or Y29794 on cancer cell survival. 10^3 Panc-1 cells were plated in 100 mm petri dish in triplicate fed with 10 ml of DMEM containing 10% FBS. The cells were then treated by ZPP for 7 days and cultured for additional three weeks. Cells were then rinsed three times with PBS, fixed with 100% ethanol for 15 min, and stained with 2% crystal violet ethanol solution. The stained colonies were counted. All the results are statistically analyzed by one way ANOVA and two tailed t-test.

IRS-1 [2] = assay: Immunoblot analysis of IRS-1 (protein, phosphorylation, half-life, p85 coimmunoprecipitation)
IRS-1 [3] = assay: as above; conditions: for rapamycin-induced increase in IRS-1: rapamycin 10 nM plus ZPP 200 μM or Y29794 0.5 μM, 24 hours
Experimental: as §1
3.2 AKT phosphorylation was examined by immunoblot as described in 3.1. IRS-1 expression was analyzed by immunoblot using anti-IRS-1 antibodies purchased from Santa Cruz Biotechnology (Santa Cruz, Calif., USA). Reduction in PRCP and/or PREP by gene silencing is shown by Western blot and quantitative PCR described in 2.2.
3.4 ZPP or Y29794 inhibits IRS-1 tyrosine phosphorylation and p85 PI3K subunit interaction with IRS-1 and PI3K kinase activity. Panc-1 cells were treated with ZPP (200 μM) or Y29794 (0.5 μM) for 24 hours. Lysates were immunoprecipitated with anti-IRS-1 antibodies and the anti-IRS-1 immunoprecipitates were used for PI3K kinase assay and anti-IRS-1 phospho-tyrosine and anti-p85 immunoblot analysis (FIG. 13). ZPP or Y29794 decreased IRS-1-associated PI3K activity (FIG. 13, upper) and tyrosine phosphorylation of IRS-1 and p85 (FIG. 13, lower).
As described in Example 2.2 and above, the cells with PRCP and PREP gene silencing were used for analysis of PRCP and PREP gene silencing and inhibition of serine phosphorylation and degradation of IRS-1 and its effects on response to rapamycin. […] Compared to control cells, DKD cells show […] serine phosphorylation (S307 and S636/639) of IRS-1 alongside with decreased tyrosine phosphorylation of IRS-1 (FIG. 18B). […]

[4] = Panc-1, 24 hours, ZPP 200 μM or Y29794 0.5 μM

**Q.** With `CC(C)c1ccc(C(=O)c2cccs2)c(SCCCCCCCCN(C)C)n1` [Y29794, [2-[8-(dimethylamino)octylsulfanyl]-6-propan-2-ylpyridin-3-yl]-thiophen-2-ylmethanone] as the compound, how does the AKT phosphorylation ([1]; MCF7, Y29794 0.5 μM, vs vehicle (ethanol)) read?
**A.** The AKT phosphorylation was “significantly decreased”.

**Q.** What about the “AKT phosphorylation (S473)” value ([1]; MCF7, vs vehicle (FIG. 8B, 8E legend)) of the same compound?
**A.** Its value is “reduced”.

**Q.** And the “rapamycin-induced increase in phosphorylation of AKT” value ([1]; MCF7)?
**A.** The value was “blocked”.

**Q.** What about the AKT phosphorylation ([1]; PK-9, ZPP 200 μM or Y29794 0.5 μM, vs vehicle) of the same compound?
**A.** Its AKT phosphorylation is “significantly decreased”.

**Q.** And the “AKT phosphorylation (S473)” value ([1]; PK-9, vs vehicle (FIG. 8A, 8F legend))?
**A.** Its value is “reduced”.

**Q.** What about the AKT phosphorylation ([1]; Panc-1, ZPP 200 μM or Y29794 0.5 μM, vs vehicle) of the same compound?
**A.** Its AKT phosphorylation is “significantly decreased”.

**Q.** And the “phosphorylated AKT (S473)” value ([1]; Panc-1, ZPP 400 μM alone (FIG. 10A legend) or Y29794 0.5 μM alone (FIG. 11A legend))?
**A.** Its value is “reduced”.

**Q.** And the “AKT phosphorylation (S473)” value ([1]; Panc-1, vs vehicle (FIG. 8C, 8D legend))?
**A.** Its value is “reduced”.

**Q.** What about the “rapamycin-induced increase in phosphorylation of AKT” value ([1]; Panc-1) of the same compound?
**A.** The value was “blocked”.

**Q.** What about the “cell survival (colony formation)” value (Panc-1; Panc-1, Y29794 25 nM in combination with rapamycin) of the same compound?
**A.** The value was “significantly (P<0.01) decreased”.

**Q.** And the “cell colonies formed at 21 days, combination” value (Panc-1; Panc-1, various concentration of rapamycin with 25 nM Y29794, 7 days (FIG. 16C legend))?
**A.** Its value is “synergistic reduction”.

**Q.** And the IRS-1 protein (IRS-1 [2]; Capan-1, Y29794 1 μM (FIG. 19A))?
**A.** Its IRS-1 protein is “reduces”.

**Q.** What about the IRS-1 protein (IRS-1 [2]; PK-9, Y29794 1 μM (FIG. 19A)) of the same compound?
**A.** Its IRS-1 protein is “reduces”.

**Q.** And the “rapamycin-induced increase in IRS-1” value (IRS-1 [3]; MCF7)?
**A.** The value was “blocked”.

**Q.** What about the “p85 coimmunoprecipitated with IRS-1” value (IRS-1 [3]; [4]) of the same compound?
**A.** The value was “reduces; also recorded: decreased”.

**Q.** What about the “tyrosine phosphorylation of IRS-1 in anti-IRS-1 immunoprecipitates” value (IRS-1 [3]; [4]) of the same compound?
**A.** Its value is “reduces; also recorded: decreased”.

**Q.** What about the IRS-1 protein (IRS-1 [3]; Panc-1, Y29794 1 μM (FIG. 19A, 19B)) of the same compound?
**A.** The IRS-1 protein was “reduces; also recorded: significantly reduced”.

**Q.** And the “serine phosphorylation (S307 and S636/639) of IRS-1” value (IRS-1 [3]; Panc-1, Y29794 1 μM (FIG. 19B))?
**A.** The value was “induces; also recorded: increased”.

**Q.** What about the “rapamycin-induced increase in IRS-1 protein” value (IRS-1 [3]; Panc-1, Y29794 1 μM with rapamycin (FIG. 19D)) of the same compound?
**A.** The value was “inhibits; also recorded: not increased nor stabilized”.

**Q.** What about the “rapamycin-induced increase in IRS-1” value (IRS-1 [3]; Panc-1) of the same compound?
**A.** Its value is “blocked”.
